# Experimental data published in patent publication US20240336568A1, “SELECTIVE PHD1 INHIBITOR COMPOUNDS, COMPOSITIONS, AND METHODS OF USE” (Akebia Therapeutics, Inc., priority 2021, published 2024).
# Tested on: full-length human prolyl-4-hydroxylase domain (PHD) enzymes, PHD1 and PHD2
# Assay: TR-FRET assay, selectivity of compounds for PHD1 over PHD2 (ratio of Kis calculated from IC50s)
# Assay type: biochemical
# Conditions: ratio of Kis (PHD2 Ki/PHD1 Ki), Kis calculated from TR-FRET IC50s by Cheng Prussoff equation; 1 uM 2-OG
# Description: Time-resolved fluorescence resonance energy transfer (TR-FRET) assay was utilized to determine the enzymatic half maximal inhibitory concentration (IC50) value of PHD inhibitors against the full-length human prolyl-4-hydroxylase domain (PHD) enzymes, PHD1 and PHD2. The TR-FRET assay was developed based on the specific binding of hydroxylated HIF-la peptide with the complex formed by VHL, EloB and EloC (VBC), to generate a fluorescent signal. Terbium (Tb)-Donor (monoclonal antibody anti-6His-Tb-cryptate Gold) and D2-acceptor (streptavidin [SA]-D2) of TR-FRET are linked to the VBC complex and to HIF-1α peptide, respectively. The VBC complex binds specifically to the HIF-1α peptide when it is hydroxylated, allowing energy transfer from TR-FRET donor to acceptor (FIG. 1).
# TR-FRET Reagents. Monoclonal antibody anti-6His-Tb-cryptate Gold (catalog #61HI2TLA) and streptavidin (SA)-D2 (catalog #610SADLA) were purchased from CisBio International (Bedford, MA, USA).
# N-terminus biotinylated HIF-1α C35 synthetic peptide representing amino acids 547 to 581 and including the proline 564 PHD2 hydroxylation site was purchased from California Peptide Research (Salt Lake City, UT, USA).
# VBC Complex. His-tagged recombinant VHL protein, EloB, EloC complex (His-VBC) was supplied by Axxam (Milan, Italy). Recombinant human VHL (National Center for Biotechnology Information [NCBI] accession number NP_00542.1) contained a His tag at the C-terminus of amino acids 55 to 213 and is referred to as VHL-His. VHL-His was co-expressed in E. coli with full-length human EloB (NCBI accession number Q15370.1) and full-length human EloC (NCBI accession number Q15369.1) and purified by affinity chromatography on a nickel-nitrilotriacetic acid (Ni-NTA) column as the His-VBC complex. Purity (˜80%) was assessed by sodium dodecyl sulfate polyacrylamide gel electrophoresis (SDS-PAGE).
# PHD1. Recombinant human PHD1 protein (catalog #81064, Lot #24717001) was purchased from Active Motif (Carlsbad, CA, USA). PHD1 was expressed in a baculovirus expression system as the full-length protein (NCBI accession number NP_542770.2) with an N-terminal FLAG tag (molecular weight 44.9 kDa). Purity (>90%) was assessed by SDS-PAGE.
# PHD2. The full-length human PHD2 enzyme was produced with a baculovirus infected insect cell (BIIC) expression system by Beryllium (Bedford, MA, USA). The PHD2 construct contained amino acids 1 to 426 of PHD2 (UniProt Knowledgebase[UniProtKB]/Swiss-Prot accession number Q9GZT9.1), and a His tag and a Tobacco Etch Virus (TEV) protease cleavage site at the N-terminus. The construct was expressed in Sf9 insect cells, purified by Ni-NTA column and digested with TEV protease to remove the His tag.
# Compounds were preincubated with PHD enzyme in a 10 μL reaction volume in white 384-well Optiplate microplates (catalog #6007290, Perkin Elmer, Waltham, MA, USA). For this, 5 μL compound was serially diluted with dilution buffer (50 mM HEPES [4-(2-hydroxyethyl)-1-piperazineethanesulfonic acid] pH 7.5, 50 mM sodium chloride [NaCl], 0.01% Tween-20, 0.01% purified bovine serum albumin [BSA]) and mixed with 5 μL PHD enzyme mix prepared as a 4× concentrate in the dilution buffer containing PHD enzyme (60 nM PHD1, 20 nM PHD2, 140 nM PHD3), 40 μM ferrous ammonium sulfate (FAS), 4 mM sodium (Na) ascorbate. The plates were incubated for 30 minutes at room temperature without rotation.
# Five microliters of the VBC/anti-6His-Tb-cryptate Gold mix prepared as a 4× concentrate in dilution buffer containing 20 nM His-VBC, 1.32 nM monoclonal antibody anti-6His-Tb-cryptate Gold was then added. This step was followed immediately by the addition of 5 μL of the HIF-1α C35 substrate mix prepared as a 4× concentrate in the dilution buffer containing 120 nM biotin-labeled HIF-1α C35, 132 nM SA-D2, 4 μM 2-oxoglutarate (2-OG) to reach a final reaction volume of 20 μL. […]
row,SMILES,Selectivity of PHD1 over PHD2
1,"CC(C)(CNC(=O)c1ncc(-c2cccc(Oc3ccc(Cl)cc3)c2)cc1O)C(=O)O [compound 24, 3-(5-(3-(4-chlorophenoxy)phenyl)-3-hydroxypicolinamido)-2,2-dimethylpropanoic acid]",~181 fold
2,"CC(C)(CNC(=O)c1ncc(-c2cn(CCCc3ccc(Cl)cc3)nn2)cc1O)C(=O)O [compound 47, 3-(5-(1-(3-(4-chlorophenyl)propyl)-1H-1,2,3-triazol-4-yl)-3-hydroxypicolinamido)-2,2-dimethylpropanoic acid]",~10 fold
3,"CC(C)(CNC(=O)c1ncc(-c2ccc3c(=O)[nH]ncc3c2)cc1O)C(=O)O [compound 57, 3-(3-hydroxy-5-(1-oxo-1,2-dihydrophthalazin-6-yl)picolinamido)-2,2-dimethylpropanoic acid]",~64 fold
4,"CC(C)(CNC(=O)c1ncc(-c2cnn(-c3ccc(Cl)cc3Cl)c2)cc1O)C(=O)O [compound 34, 3-(5-(1-(2,4-dichlorophenyl)-1H-pyrazol-4-yl)-3-hydroxypicolinamido)-2,2-dimethylpropanoic acid]",~24 fold
5,"CC(C)(CNC(=O)c1ncc(-c2ccc3ccncc3c2)cc1O)C(=O)O [compound 43, 3-(3-hydroxy-5-(isoquinolin-7-yl)picolinamido)-2,2-dimethylpropanoic acid]",~1875 fold
6,"O=C(O)CCNC(=O)c1ncc(-c2cnn(-c3ccccc3)c2)cc1O [compound 54, 3-(3-hydroxy-5-(1-phenyl-1H-pyrazol-4-yl)picolinamido)propanoic acid]",~11 fold
7,"CC(C)(CNC(=O)c1ncc(-c2scc3c2OCCO3)cc1O)C(=O)O [compound 56, 3-(5-(2,3-dihydrothieno[3,4-b][1,4]dioxin-5-yl)-3-hydroxypicolinamido)-2,2-dimethylpropanoic acid]",~44 fold
8,"CCOc1ccc2cc(-c3cnc(C(=O)NCC(C)(C)C(=O)O)c(O)c3)ccc2c1 [compound 58, 3-(5-(6-ethoxynaphthalen-2-yl)-3-hydroxypicolinamido)-2,2-dimethylpropanoic acid]",~911 fold
9,"CC(C)(CNC(=O)c1ncc(-c2cccc(Oc3ccccc3)c2)cc1O)C(=O)O [compound 8, 3-(3-hydroxy-5-(3-phenoxyphenyl)picolinamido)-2,2-dimethylpropanoic acid]",~219 fold
10,"CC(C)(CNC(=O)c1ncc(-c2cccc(CN3CCCC3)c2)cc1O)C(=O)O [compound 10, 3-(3-hydroxy-5-(3-(pyrrolidin-1-ylmethyl)phenyl)picolinamido)-2,2-dimethylpropanoic acid]",~95 fold
11,"O=C(O)CCNC(=O)c1ncc(-c2ccc3ccccc3c2)cc1O [compound 62, 3-(3-hydroxy-5-(naphthalen-2-yl)picolinamido)propanoic acid]",~24 fold
12,"CC(C)(CNC(=O)c1ncc(-c2cc3nc(Cl)ccc3s2)cc1O)C(=O)O [compound 35, 3-(5-(5-chlorothieno[3,2-b]pyridin-2-yl)-3-hydroxypicolinamido)-2,2-dimethylpropanoic acid]",~271 fold
13,"CC(CNC(=O)c1ncc(-c2cccc(Cl)c2)cc1O)C(=O)O (stereo not drawn) [compound 49, 3-(5-(3-chlorophenyl)-3-hydroxypicolinamido)-2-methylpropanoic acid]",~12 fold
14,"CC(C)(CNC(=O)c1ncc(-c2cccc(COc3ccc(OC(F)(F)F)cc3)c2)cc1O)C(=O)O [compound 16, 3-(3-hydroxy-5-(3-((4-(trifluoromethoxy)phenoxy)methyl)phenyl)picolinamido)-2,2-dimethylpropanoic acid]",~53 fold
15,"CC(C)(CNC(=O)c1ncc(-c2cccc(COc3cccc(Cl)c3)c2)cc1O)C(=O)O [compound 11, 3-(5-(3-((3-chlorophenoxy)methyl)phenyl)-3-hydroxypicolinamido)-2,2-dimethylpropanoic acid]",~50 fold
16,"CC(CNC(=O)c1ncc(-c2ccc3ccccc3c2)cc1O)C(=O)O (stereo not drawn) [compound 48, 3-(3-Hydroxy-5-(naphthalen-2-yl)picolinamido)-2-methylpropanoic acid]",~167 fold
17,"CC(C)(CNC(=O)c1ncc(-c2cnc(-c3ccccc3)s2)cc1O)C(=O)O [compound 53, 3-(3-hydroxy-5-(2-phenylthiazol-5-yl)picolinamido)-2,2-dimethylpropanoic acid]",~1215 fold
18,"CC(C)(CNC(=O)c1ncc(-c2cccc(NCc3ccc(Cl)cc3)c2)cc1O)C(=O)O [compound 30, 3-(5-(3-((4-Chlorobenzyl)amino)phenyl)-3-hydroxypicolinamido)-2,2-dimethylpropanoic acid]",~223 fold
19,"CC(C)(CNC(=O)c1ncc(-c2ccc3cnccc3c2)cc1O)C(=O)O [compound 42, 3-(3-hydroxy-5-(isoquinolin-6-yl)picolinamido)-2,2-dimethylpropanoic acid]",~197 fold
20,"CC(C)(CNC(=O)c1ncc(-c2cccc(OCCc3ccc(Cl)cc3)c2)cc1O)C(=O)O [compound 31, 3-(5-(3-(4-chlorophenethoxy)phenyl)-3-hydroxypicolinamido)-2,2-dimethylpropanoic acid]",~40 fold
21,"CC(C)(CNC(=O)c1ncc(-c2cnn3c2CCCC3)cc1O)C(=O)O [compound 38, 3-(3-hydroxy-5-(4,5,6,7-tetrahydropyrazolo[1,5-a]pyridin-3-yl)picolinamido)-2,2-dimethylpropanoic acid]",~49 fold
22,"CC(C)(CNC(=O)c1ncc(-c2cnn(CCN3CCOCC3)c2)cc1O)C(=O)O [compound 19, 3-(3-hydroxy-5-(1-(2-morpholinoethyl)-1H-pyrazol-4-yl)picolinamido)-2,2-dimethylpropanoic acid]",~495 fold
23,"Cc1c(-c2cnc(C(=O)NCC(C)(C)C(=O)O)c(O)c2)ccc2ccccc12 [compound 60, 3-(3-hydroxy-5-(1-methylnaphthalen-2-yl)picolinamido)-2,2-dimethylpropanoic acid]",~204 fold
24,"CC(C)(CNC(=O)c1ncc(-c2ccc3cc(OCCc4ccc(Cl)cc4)ccc3c2)cc1O)C(=O)O [compound 28, 3-(5-(6-(4-chlorophenethoxy)naphthalen-2-yl)-3-hydroxypicolinamido)-2,2-dimethylpropanoic acid]",~9 fold
25,"CC(C)(CNC(=O)c1ncc(-c2ccc(S(=O)(=O)N3CCCC3)cc2CO)cc1O)C(=O)O [compound 36, 3-(3-hydroxy-5-(2-(hydroxymethyl)-4-(pyrrolidin-1-ylsulfonyl)phenyl)picolinamido)-2,2-dimethylpropanoic acid]",~113 fold
26,"C[C@H](CC(=O)O)NC(=O)c1ncc(-c2cccc(Cl)c2)cc1O [compound 3, (R)-3-(5-(3-chlorophenyl)-3-hydroxypicolinamido)butanoic acid]",~17 fold
27,"Cc1ccnc2ccc(-c3cnc(C(=O)NCC(C)(C)C(=O)O)c(O)c3)cc12 [compound 39, 3-(3-hydroxy-5-(4-methylquinolin-6-yl)picolinamido)-2,2-dimethylpropanoic acid]",~230 fold
